One block for each compound: values may come before it.
What was measured:
Type in all cases: cell-based
[1] = test system: primary beta-cells; assay: Basal oxygen consumption rate in primary beta-cells; details: 1 mg/ml, 72 hours
Protocol: (§1) INS1 (an insulin secreting cell line) cells (FIGS. 1A and 1B) and primary beta-cells (FIG. 1C) were treated with 1 mg/ml doxycycline for 72 hours. […] FIGS. 1B and 1C show basal Oxygen Consumption Rate (OCR) measured with Seahorse XF 24 respirometer. Average of 4 wells +/−SEM.

[2] = test system: INS1 cells; assay: Cell growth rate under doxycycline; details: 1 mg/ml, 24, 48 and 72 hours
Protocol: as §1

[3] = test system: INS1 cells expressing MitoTimer; assay: MitoTimer red/green ratio high-content screen and dose-response; details: 18 h, Rapamycin 100 nM; for MitoTimer red/green ratio (known modulators): Urolithin 50 uM, Bafilomycin 200 nM, Chloroquine 20 uM
Protocol: INS1 cells were stably transduced with MitoTimer by lentiviral infection and were tested using known modulators of autophagy. The paradigm used was based on previous reports showing that the shift in emission from green to red occurs within 18 hours. Assuming that this shift is constant, changes in red FI occurring during this frame of time can result from an effect on MitoTimer clearance and not from an effect on synthesis. The paradigm employed consisted therefore of a treatment lasting 18 hours followed by imaging.
Stimulators of mitochondrial clearance were defined as those inducing a red-to-green FI below −3 and a red intensity below −5.1. Suppressors of mitochondrial clearance were defined as those inducing a red-to-green FI above 10.34 and a red intensity above 4.5. […] Compounds displaying high green FI (above 15) were also discarded to prevent the inclusion of autofluorescent molecules. Only molecules that filled the above criteria in both duplicates were further tested.
The screen was performed during 8 sessions in Weizmann institute. All compounds were tested at a concentration of 10 μM, in duplicates. The images were processed to reduce background (using Metamorph software) and then analyzed in GeneData software.
We subjected those compounds to a dose-response assay (concentrations: 10, 3.33, 1.11, 0.37 and 0.12 μM).
MitoTimer expressing INS1 cells generation, Cell Culture and treatments. MitoTimer-reporter was cloned into the pHAGE2 lenti-vector under the full-length EF1-alpha promoter to obtain constitutive expression. For the HCS, INS1 cells were infected with lentivirus carrying mitochondrial complex-I-targeted-MitoTimer plasmid. Highly expressing cells were selected by high speed fluorescence activated cell sorter (SY3200 cell sorter, Synergy, iCyt) and kept by the addition of puromycin (1 mg . L-1) in the cell media. Cells were thawed before each experiment, and MitoTimer expression checked through fluorescence.
High-Content Screening. […] HCS assay was developed at the Drug Discovery Unit, INCPM, Weizmann Institute of Science. […] Briefly, cells were treated with 10 uM of each compounds for 18 h and imaged in two wavelengths (FITC—excitation […], emission 520/35 nm and TRITC—excitation 543/22 nm, emission 593/40 nm) at ImageXpress Micro High-Content Imaging System/Molecular Devices. Rapamycin 100 nM was used as a control. In each cell plate, the neutral (DMSO) and positive control (Rapamycin) were repeated in 16 replicates while the treatments were performed in duplicates. Each plate was replicated and only hits found in the 2 independent plates were considered. Two fields of each well were analyzed, what normally allowed the analysis of 20-40 cells per condition. MitoTimer red/green ratio for every cell was done in MetaXpress. […] The compounds which affected MitoTimer red/green ratio in a dose response, ranging from […], were classified as a hit.
Individual cells were identified using the red channel, and red and green MitoTimer fluorescence were analyzed and ratio determined per cell.

[4] = test system: INS1 cells; assay: Mitochondrial mass by Mitotracker green staining; details: 18 h; SPB08007 25 μM, MWP00839 11.5 μM, Urolithin A 25 μM
Protocol: The Z-score depicts the standard deviation from the neutral control (DMSO). In FIG. 3C: Mitochondrial mass in INS1 cells treated for 18 hours with either DMSO (control), Urolithin A (25 μM), SPB08007 (“SBP”) (25 μM) or MWP00839 (“MWP”) (11.5 μM) and then stained with Mitotracker green (200 nM). In FIG. 3D: SPB08007 and MWP00839 increase the number of mitochondria inside autolysosomes. INS1 cells expressing mCherry-GFP were exposed to SPB08007, MWP00839, and DMSO for 8 hours and then subjected to confocal microscopy. The area of red fluorescence in the taken images was determined. N=3+/−SEM pANOVA<0.05. FIG. 3E provides representative images. […] FIG. 3F provides the Western blot against LC3 in INS1 cells treated with the compounds in presence or absence of bafilomycin (+b) for the last 2 hours.
Mitotracker Green Fluorescence, Anion Radical Superoxide and Mitochondrial Membrane Potential. INS1 cells were seeded into wells of a 96-wells glass bottom cell culture plate (CELLSTAR) at a density of 2*10^4 cells/well. To assess mitochondrial clearance, a pulse-chase experiment was performed. […] Results are expressed as the percentage of MTG fluorescence relative to MTG fluorescence of the “time 0” control. […] Integrated fluorescence of each field was analyzed in Image J after background subtraction and threshold (IsoData) application. Twenty-four fields of each condition were analyzed in each experiment.

basal oxygen consumption rate (OCR) [1]: impairs
Structure (SMILES): C[C@H]1c2cccc(O)c2C(=O)C2=C(O)[C@]3(O)C(=O)C(C(N)=O)=C(O)[C@@H](N(C)C)[C@@H]3[C@@H](O)[C@@H]21 [Doxycycline]
cell growth [2]: impairs

Structure (SMILES): CO/C1=C\C(C)=C\[C@@H](C)[C@@H](O)[C@@H](C)C/C(C)=C/C=C/[C@H](OC)[C@@H]([C@@H](C)[C@@H](O)[C@H](C)[C@@]2(O)C[C@@H](O)[C@H](C)[C@@H](C(C)C)O2)OC1=O [bafilomycin A1, reference compound]
MitoTimer red/green ratio (known modulators) [3]: increased

Structure (SMILES): O=c1oc2cc(O)ccc2c2ccc(O)cc12 [Urolithin A, reference compound]
MitoTimer red/green ratio (known modulators) [3]: significantly reduced
mitochondrial mass (mitotracker green fluorescence) [4]: reduction

Structure (SMILES): CO[C@H]1C[C@@H]2CC[C@@H](C)[C@@](O)(O2)C(=O)C(=O)N2CCCC[C@H]2C(=O)O[C@H]([C@H](C)C[C@@H]2CC[C@@H](O)[C@H](OC)C2)CC(=O)[C@H](C)/C=C(\C)[C@@H](O)[C@@H](OC)C(=O)[C@H](C)C[C@H](C)/C=C/C=C/C=C/1C [Rapamycin, reference compound]
increase of MitoTimer red/green ratio [3]: 50%

— patent US20230002344A1, “NOVEL BENZOTHIOPHENE DERIVATIVES AND USE THEREOF FOR STIMULATING MITOCHONDRIAL TURNOVER” (NIBN, The National Institute For Biotechnology In The Negev …, priority 2019, published 2023)
